Assay [1] has as its target T1, 5-HT M-receptor (Oryctolagus cuniculus, UniProt A0A5F9C9J3).
T1 sequence (A0A5F9C9J3 35-494): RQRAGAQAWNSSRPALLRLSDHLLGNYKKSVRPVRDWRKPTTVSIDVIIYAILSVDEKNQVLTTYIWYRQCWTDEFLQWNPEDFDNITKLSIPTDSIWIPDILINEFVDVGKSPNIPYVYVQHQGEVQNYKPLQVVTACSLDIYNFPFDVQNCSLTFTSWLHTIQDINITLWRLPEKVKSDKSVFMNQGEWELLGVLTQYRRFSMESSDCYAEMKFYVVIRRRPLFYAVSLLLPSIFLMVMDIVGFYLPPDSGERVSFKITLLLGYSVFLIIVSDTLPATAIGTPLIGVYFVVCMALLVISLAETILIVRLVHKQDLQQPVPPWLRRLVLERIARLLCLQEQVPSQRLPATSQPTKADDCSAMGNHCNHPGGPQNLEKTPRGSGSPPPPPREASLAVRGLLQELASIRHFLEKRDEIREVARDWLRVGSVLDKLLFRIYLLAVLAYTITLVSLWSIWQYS
Description: pA2 against 5-HT in the isolated rabbit heart. Particulars: negative logarithm of molar antagonist concentration reducing effect of twice the ED50 of 5-HT to that of the ED50. Here is the method: The activity of the compounds against 5-HT can be assessed by determining their pA2 values in the isolated rabbit heart as described by J.R. Fozard et al Europ. J. Pharmacol. 59, 195-210 (1979). In the method described the molar concentration of antagonist which reduces the effects of twice the ED50 of 5-HT to that of the ED50 in the absence of antagonist is determined. The pA2 value is the negative logarithm of said molar concentrations.

In assay [2] the test system is von Bezold-Jarisch reflex evoked by 5-HT. Description: Antagonism of the von Bezold-Jarisch reflex evoked by 5-HT in the anaesthetised rat. The assay is classed as in vivo. Particulars: iv, anaesthetised male Sprague-Dawley rat, antagonist intravenously; for ED50: dose inhibiting the response to 5-HT (2µg/kg i.v.) by 50%. The source says:
The activity of the compounds of Formula I against 5-HT can be assessed in vivo by measurement of the effect of the compound on the Von Bezold-Jarisch Reflex induced by 5-HT injected intravenously into the rat (see A.S. Paintal, Physiol. Rev. 53 (159-227), 1973). The transient cardiac slowing results arises from an increased efferent vagus activity arising from stimulation by 5-HT of sensory afferent fibres in and around the heart.
Antagonism of the von Bezold-Jarisch reflex evoked by 5-HT in the anaesthetised rat was measured for N-methyl-4-piperidinyl-3',5'-dimethylbenzoate (Compound A) and N-methyl-3-piperidinyl 3',5'-dimethylbenzoate (Compound B), using the following method: • Male Sprague-Dawley rats weighing 250-300 g are anaesthetized with urethane, 1.25 g/kg injected intraperitoneally and set up for recording blood pressure and heart rate as described in Fozard J.R et al., J. Cardiovasc. Pharmacol. 2, 229-245 (1980). A submaximal dose of 5-HT (2µg/kg) is given repeatedly into the cannulated jugular vein and changes in heart rate quantified. Antagonists are given intravenously and the doses required to just inhibit the response to 5-HT (threshold dose) or to inhibit the response to 5-HT by 50% (ED50) are determined.

For assay [3], the target named is T1, 5-HT M-receptor. The settings on record: 5-HT M-receptor antagonism; values reported in the literature (J.R. Fozard et al., Eur. J. Pharmacol.); cited from earlier work.

Data on five molecules can be found in patent EP0116255A2, “Treatment of migraine with N-alkyl-piperidinyl benzoate derivatives” (MERRELL DOW FRANCE ET CIE, priority 1982, dated 1984).

Like-named read-outs stand apart in the source and are kept apart here.

For orientation: ED50 means the midpoint of the dose-response relation. Read a low ED50 as an effect at a small dose.

For `Cc1cc(C)cc(C(=O)OC2CCN(C)CC2)c1` [Compound A, N-Methyl-4-piperidinyl-3',5'-dimethylbenzoate], the “pA2 5-HT” value on 5-HT M-receptor [1] was determined as 8.1. Moreover, the ED50 in assay [2] was 0.136 ± 0.022 mg/kg. For `Cc1cc(C)cc(C(=O)OC2CCCN(C)C2)c1` (stereo not drawn) [Compound B, N-Methyl-3-piperidinyl-3',5'-dimethylbenzoate], in that order: 7.3 and 0.51 ± 0.116 mg/kg. For `CCN(CC)CCNC(=O)c1cc(Cl)c(N)cc1OC` [metoclopramide], the 50% effect level in assay [2] (ED50) was put at a dose of 0.408 ± 0.0809 mg/kg. The minimal effective dose in assay [2] (dose required to just inhibit the response to 5-HT (2µg/kg i.v.), read-out: THRESHOLD DOSE) came out at 0.233 ± 0.0663 mg/kg. At 5-HT M-receptor [3], the “pA2 5-HT” value is 7.2. With `COC(=O)[C@H]1[C@@H](OC(=O)c2ccccc2)C[C@@H]2CC[C@H]1N2` [nor(-)cocaine], on 5-HT M-receptor [3], the “pA2 5-HT” value was 7.7. Turning to tropyl benzoate, at 5-HT M-receptor [3], the “pA2 5-HT” value is given as 7.2.
